Legend:
versican = test: Versican DPEEAE fragments and full-length versican in myocardial ECM fractions (immunoblotting), aortic banding rats; assay type: in vivo, rat
Protocol: Three days after AB, rats were stratified by the gradient over the stenosis to ensure similar degree of cardiac stress. Two and two stratified rats were randomized to either 6 mg/kg of the sulfated polysaccharide sodium pentosan polysulfate (PPS) (Interfarm AS, Norway) or vehicle (0.9% NaCl) injected subcutaneously every third day. […] Six weeks after AB or sham operation, the rats were examined by echocardiography and postmortem analysis, performed by experienced investigators (IS, JMA) blinded to treatment group.
Proteins from rat myocardium were extracted as previously described (Didangelos et al. J Biol Chem 2012. 287(23):19341-5). Briefly, proteins were separated into three fractions; NaCl-soluble extracellular proteins (NaCl-ECM) and guanidine-soluble extracellular proteins (G-ECM), containing the fluid and matrix compartment of ECM respectively, in addition to cellular and cell-linked proteins dissolvable in SDS (SDS-samples) (FIG. 6D). NaCl-ECM and G-ECM were deglycosylated to remove GAG chains using 4 mU/NaCl-sample and 12 mU/G-sample of Chondroitinase ABC (from Proteus vulgaris, G3667, Sigma-Aldrich, MO) and 5 mU/NaCl-sample and 15 mU/G-sample of keratanase (endo-β-galactosidase from Bacteroides fragilis, G6920, Sigma-Aldrich), as previously described (Didangelos A et al. supra).
Protein concentrations were measured using the Micro BCA Protein Assay Kit (Pierce/Thermo Scientific, IL). Sample buffer was mixed with 5-25 μg (G-samples) or 30 μg (NaCl and SDS samples) of the protein lysate, denatured at 96° C. for 10 min, and run on 1.5 mm 4-12% Bis-Tris gradient gels (Nupage, Invitrogen, CA), with MOPS SDS running buffer until the 37 kDa protein marker reached the bottom of the gel. All protein extracts were loaded blinded to group.
SDS-PAGE and immunoblotting was performed as described in the Criterion BioRad protocol, using polyvinylidene fluoride (PVDF) membranes (GE Healthcare Life Sciences, Uppsala, Sweden). Blots were developed using the ECL Plus Western Blotting Detection System (GE Healthcare) and visualized in the Las-4000 mini from Fujifilm (Japan). Before reprobing, stripping was performed using the Restore Western Blot Stripping Buffer (21059, Thermo Scientific, IL). […]
Membranes were blocked in 5% non-fat dry-milk (170-6404, BioRad) overnight. […] Primary antibodies used were against ADAMTS4 (PA1-1750, Thermo Pierce Scientific, IL), versican full length (sc-25831, Santa Cruz Biotechnology, CA) and versican fragments displaying the neo-epitope DPEEAE (ab19345, Abcam, Cambrigde, UK) resulting from ADAMTS cleavage by ADAMTS1/4 (Sandy J D et al. J Biol Chem 2001. 276(16):13372-8; Didangelos A et al. supra), and quantified by ImageJ.

ADAMTS4 = ADAMTS4 (Rattus norvegicus (Rat), UniProt Q9ESP7); test: Active ADAMTS4 protein level (immunoblotting) in MI rats; assay type: in vivo; details: PPS-treatment
Protocol: At day 0 to 3 (median 2) after surgery, infarct size was quantified by echocardiography using the Vevo2100 system (Visualsonics Inc, Canada) and magnetic resonance imaging (MRi) using a 9.4 T/210 mm/ASR horizontal bore magnet (Agilent Technologies, Inc., USA). Initially, echocardiography was performed to select moderate to large infarcts ranging approximately 40 to 50%. Thereafter, infarct sizes were exactly measured by late-enhancement gadolinium MRi analyses (Bohl S., et al. American Journal of Physiology, 2009; 296 (4): H1200-H1208) and stratified into small infarcts (stratum 1: <43%, stratum 2: 43-48%), and large infarcts (stratum 3: 48-53%, stratum 4: >53%). The rats in each MI stratum and sham group were randomized to receive intervention or control treatment. The intervention group was treated with 6 mg/kg of sodium PPS (Interfarm AS, Norway), while the control group received vehicle (0.9% NaCl), both injected subcutaneously every third day starting from post-operative day 8-10.
Fractional protein lysates from myocardium of rats having undergone MI treated with PPS or vehicle were extracted as previously described in Example 1 and Didangelos et al. (Journal of Biological Chemistry 2012 Jun. 1; 287(23):19341-5). Protein concentrations were measured by western blotting as previously described in Example 1. […]

[1] = PPS-treated AB-rats, normalized to control, median (interquartile range)

## pentosan polysulfate [PPS]
versican; PPS-treated AB-rats vs vehicle-treated AB-rats, p=0.05
  change of p150 versican in NaCl-ECM compared to vehicle-treated AB-rats: halved
versican; [1]
  level of full-length versican (p400) in G-ECM: 1.17 (0.77-6.85)
  level of p150 versican DPEEAE fragment in NaCl-ECM: 1.08 (0.69-1.63)
versican; PPS-treated sham, normalized to control, median (interquartile range)
  p70 versican fragment level in G-ECM: 0.34 (0.28-0.61)
ADAMTS4
  active ADAMTS4 protein levels: decreased

Source: patent publication US10322143B2, “Inhibitors of ADAMTS4 or ADAMTS5 for use in preventing or treating cardiac remodeling and chronic heart failure” (Universitetet i Oslo, priority 2013, dated 2019)
